Assay results: patent publication US11780821B2, “Inhibitors of fibroblast activation protein” (Praxis Biotech LLC, priority 2017, dated 2023)

Assays:
[1] = tested on: endogenous FAP in plasma; assay: PD study in hamsters: plasma FAP activity and endogenous FGF21; format: in vivo, Golden Syrian hamsters; settings: hamster, 1 mg/kg IV or 10 mg/kg PO
Procedure: To assess the effect of FAP inhibition by an exemplary compound over the cleavage of endogenously produced FGF21, in vivo PK/PD studies were conducted in male Golden Syrian hamsters following single intravenous and oral administration of an exemplary compound.
Hamsters from Group 1 received an intravenous bolus via jugular vein of 1 mg/kg of compound 13 (an exemplary compound). On the other hand, hamsters from Group 2 received an intragastric bolus of 10 mg/kg of compound 13 (an exemplary compound) using feeding needles.
Plasma samples were collected at 5, 10, 15, 30, 60, 120, 240, 360, 480 and 1440 minutes post-dose in both IV and PO groups. Hamsters from group 3 were not dosed and were used to collect samples of zero time point and baseline levels of FAP activity and endogenous FGF21.
Blood aliquots (100-150 μL) were collected from jugular vein catheterized hamsters in tubes coated with EDTA-K2, mixed gently, then kept on ice and centrifuged at 2,500×g for 15 minutes at 4° C., within 1 hour of collection. […]
Levels of endogenous hamster FGF21 in the plasma samples were quantified by using an ELISA kit (Cat. No. #EZRMFGF21-26K, Millipore) according to the manufacturer's instructions. […] Plasma samples of non-dosed animals were analyzed as a pool of plasma. […]

[2] = tested on: MC38 mouse colon cancer cell line; assay: Tumor inhibition in vivo (MC38 tumor in C57/BL6 mice); settings: 50 mg/kg orally twice daily from day 7 to day 22; no statistical significance observed
Procedure: Female C57/BL6 mice (approximately 8-9 weeks old; 20-21 gr) obtained from the vivarium of Fundación Ciencia & Vida (Santiago, Chile) were maintained in a temperature-controlled room with 12/12 hour light/dark schedule with food and water ad libitum. The mice were acclimated for a minimum period of 4 days upon arrival at the testing facility.
MC38 mouse colon cancer cell line was maintained as monolayer culture in DMEM-F12 (Cat. No.: SH30023.01, Hyclone) supplemented with 10% fetal bovine serum (Cat. No.: 16000, Gibco) and penicillin/streptomycin (Cat. No.: 15140122, Gibco) at 37° C. in an atmosphere with 5% CO2. The cells were routinely subcultured every 3 days to maintain growth at exponential phase. […] Cell pellet was resuspended in approximately 10× volume of cell culture medium and counted. Cell viability was determined to be >95% by trypan blue staining.
At the day of inoculation, female C57/B16 mice (n=15 total) were weighed and identified by marking the tail with numbers using a non-toxic permanent marker. […] Tumors were measured three times per week with digital calipers and tumors volumes, expressed in mm^3, were calculated with the following formula: Tumor volume (mm^3)=(a×b^2)/2 […]
Seven days after inoculation, mean tumor volume was about 100 mm^3. […] Body weight of the mice and tumor volume was recorded two or three times per week for a total of 22 days. […]

Row | SMILES | FAP activity in plasma compared with baseline levels [1] | levels of total endogenous FGF21 in plasma ([1]; ELISA) | tumor volume vs vehicle [2]
1 | N#C[C@@H]1CC(F)(F)CN1C(=O)CNC(=O)c1ccncc1-c1ccccc1 [Compound 13, (S)—N-(2-(2-cyano-4,4-difluoropyrrolidin-1-yl)-2-oxoethyl)-3-phenylisonicotinamide] | diminished quickly | increased in the most of hamsters | –
2 | N#C[C@@H]1CC(F)(F)CN1C(=O)CNC(=O)c1ccncc1C1CC1 [Compound 24, (S)—N-(2-(2-cyano-4,4-difluoropyrrolidin-1-yl)-2-oxoethyl)-3-cyclopropylisonicotinamide] | – | – | smaller volume of tumor
